{"source": "patent US10570152B2", "about": "“Antibacterial therapeutics and prophylactics” (VYOME BIOSCIENCES PVT. LTD., priority 2015, dated 2020)", "key": {"[1]": {"tested_on": "S. aureus CCARM 3505", "experiment": "MIC by micro broth dilution", "assay_type": "cell-based", "conditions": "Staphylococcus aureus, CCARM3505, read-out: Minimum inhibitory concentration (MIC)", "in_short": "(§1)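 CLSI broth microdilution in BHI broth, twofold serial dilutions; inoculum from 0.5 McFarland culture diluted 100-fold. Incubated 37° C for 24 h; MIC read after Alamar blue addition.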"}, "[2]": {"tested_on": "S. epidermidis S12-1", "experiment": "MIC by micro broth dilution", "assay_type": "cell-based", "conditions": "Staphylococcus epidermidis, S121, read-out: Minimum inhibitory concentration (MIC)", "in_short": "as §1"}, "[3]": {"tested_on": "E. aerogenes NCIM 5139", "experiment": "MIC by micro broth dilution", "assay_type": "cell-based", "conditions": "Klebsiella aerogenes, NCIM5139, read-out: Minimum inhibitory concentration (MIC)", "in_short": "as §1"}, "[4]": {"tested_on": "A. baumannii ATCC 1906", "experiment": "MIC by micro broth dilution", "assay_type": "cell-based", "conditions": "Acinetobacter baumannii, ATCC1906, read-out: Minimum inhibitory concentration (MIC)", "in_short": "as §1"}, "[5]": {"tested_on": "Gram negative pathogens", "experiment": "MIC interpretations, Gram negative pathogens", "assay_type": "cell-based", "conditions": "most of the Gram negative pathogens", "procedure": "MIC of DART molecules were determined by micro broth dilution as per CLSI guidelines. Bacterial strains were cultured in Brain Heart Infusion Agar (BHIA) at 37° C. for 24 h. For MIC determination, BHI broth (100 μl) was added to each of the wells of a 96 well plate. 100 μl of broth containing drug was added to the first well (1A to 1H) and thereafter serial (double) dilutions were carried out for up to 10 wells (column 1 to column 10 of the 96 well plate). Bacterial inoculum was prepared by adjusting the bacterial culture turbidity to 0.5 McFarland standard (approximately 1.5×10^8 cells/ml) and further diluted (100 times with sterile BHI broth). Diluted bacterial suspension (100 μl) was added to each well except sterility control wells (column 12 of 96 well plate). The plates were incubated at 37° C. for 24 h. The MIC of the test compound was measured after addition of Alamar blue dye."}, "[6]": {"tested_on": "S. epidermidis S5-2", "experiment": "Sequential ZIB (zone of inhibition) assay for PMMA beads", "assay_type": "cell-based, Staphylococcus epidermidis", "conditions": "SmartSet HV impregnated beads", "procedure": "S. epidermidis S5-2 cells were grown in Brain Heart Infusion Agar (BHIA) at 37° C. for 24 h. 100 μl of 0.5 McFarland equal bacterial suspension was spread on BHA plates. Drug loaded beads were placed above these plates. Plates were incubated at 37° C. for 24 h. Next day, zone of inhibition (ZOI) the beads were measured following which the beads were placed on fresh BHA plates with bacterial suspension spread and this experiment was continued up to seven days. The drug release pattern was determined by compiling and analyzing the ZOI data of beads on each ZOI cycle up to seven days."}}, "data": [{"compound": "Cc1ncc([N+](=O)[O-])n1CCN1CCN(c2cc3c(cc2F)c(=O)c(C(=O)O)c2n3C(C)S2)CC1", "note": "(stereo not drawn) [Compound 2, 6-Fluoro-1-methyl-7-(4-(2-(2-methyl-5-nitro-1H-imidazol-1-yl)ethyl)piperazin-1-yl)-4-oxo-1H,4H-[1,3]thiazeto[3,2-a]quinoline-3-carboxylic acid]", "values": [{"measurement": "MIC", "setting": "[1]", "value": 16, "unit": "µg/mL"}, {"measurement": "MIC", "setting": "[2]", "value": 8, "unit": "µg/mL"}, {"measurement": "MIC", "setting": "[3]", "value": 4, "unit": "µg/mL"}, {"measurement": "MIC", "setting": "[4]", "value": 8, "unit": "µg/mL"}, {"measurement": "activity (MIC) range", "setting": "[5]", "value": "4 to 8", "unit": "µg/mL"}, {"measurement": "Sequential ZOI", "setting": "[6]; Day-1", "value": 2.2, "unit": "cm"}, {"measurement": "Sequential ZOI", "setting": "[6]; Day-2", "value": 2.1, "unit": "cm"}, {"measurement": "Sequential ZOI", "setting": "[6]; Day-3", "value": 1.6, "unit": "cm"}, {"measurement": "Sequential ZOI", "setting": "[6]; Day-4", "value": 0.8, "unit": "cm"}, {"measurement": "Sequential ZOI", "setting": "[6]; Day-5", "value": 1.6, "unit": "cm"}, {"measurement": "Sequential ZOI", "setting": "[6]; Day-6", "value": 1.8, "unit": "cm"}, {"measurement": "Sequential ZOI", "setting": "[6]; Day-7", "value": 1.4, "unit": "cm"}]}]}
